Measured values from US20160038505A1, “METHODS AND COMPOSITIONS FOR TREATING IMPULSE CONTROL DISORDER, ANXIETY-RELATED DISORDERS, VIOLENCE AND/OR ANGER, OR REGULATING FOOD INTAKE” (priority 2014, published 2016).

How the values were obtained:
[1] = Pharmacokinetics of noribogaine in healthy male volunteers (plasma, urine, LCMSMS); details: for AUC0-216 / AUC0-∞ / Cmax / Tmax / t1/2: mean (SD), n = 6
[2] = Human pharmacokinetic study, single oral tablet, fasting healthy volunteers (serum); format: in vivo; details: 3 mg, 10 mg, 30 mg or 60 mg single oral tablet
Procedure: In double blind studies, fasting healthy volunteers (6 per cohort) were treated once orally with a tablet of noribogaine HCl. In escalating cohorts, the volunteers received 3 mg, 10 mg, 30 mg or 60 mg noribogaine.

[3] = tested on: dogs; test: Fourteen day repeat dose toxicity in dogs; format: in vivo, dog
Procedure: The objective of this study was to determine the toxicity profile of noribogaine HCl given following oral (gavage) administration to dogs for 14 days according to the following Table 3 below:
Noribogaine HCl was administered to groups of 4 male and 4 female dogs by single oral gavage daily for 14 days at doses of 0, 0.5, 1.0 and 5.0 mg/kg/day. An additional group of 4 male and 4 female dogs received either the vehicle control or 5.0 mg/kg/day for 14 days and were held for an additional 28 days after cessation of dosing to assess recovery from any potential drug-induced changes. The study was conducted under GLP guidelines and included comprehensive examinations of clinical signs, body weight, clinical pathology parameters, ophthalmologic examinations, ECG recordings and analyses of plasma for bioanalytical measurement of drug levels at appropriate intervals during the study. At the termination of the dosing phase and at the termination of the recovery phase, all dogs were subjected to a complete post-mortem examination including gross examination of major organs and histologic examination of an extensive list of tissues. Additional sections of brain were obtained from cerebrum, cerebellus, brain stem and spinal cord and examined histologically to evaluate potential effects on brain histopathology. In addition, these sections were examined with immunohistochemical stains for GFAP for evidence of gliosis and Calbindin for a more comprehensive examination of cerebellar Purkinje cells.

[4] = tested on: Sprague-Dawley rat; test: Single dose toxicity in rats; format: in vivo
Procedure: The objective of this study was to determine the toxicity and toxicokinetic profile of noribogaine HCl following a single oral (gavage) administration in the Sprague-Dawley rat. A single dose of 100, 300 and 800 mg/kg (achieved with doses of 400 mg/kg 3 h+/−30 min apart because of the limitations of maximum dose formulation concentration). Five male rats/group were used. […] Hypoactivity, vocalization, chewing movements, changes in respiration/posture, salivation, stimuli sensitivity, tremors, twitches and penile erection occurred prior to death. […] The NOAEL was determined to be 100 mg/kg.

[5] = tested on: Sprague-Dawley rats; test: Fourteen day repeat dose toxicity in rats; format: in vivo, rat
Procedure: This study was conducted to evaluate the toxicity profile of noribogaine-HCl following oral (gavage) administration to the rat for 14 days following Table 2 below:
Male and female Sprague-Dawley rats, 10/sex/group, were administered 0, 25, 50 or 100 mg/kg noribogaine HCl daily by single oral gavage for 14 days. An additional 5 rats/sex/group in the 0 (control) and 100 mg/kg groups were retained for a 28 day recovery period during which no drug was administered. Six rats/sex/group (3 rats/sex controls) were similarly dosed and sampled on study days 1 and 14 for analysis of noribogaine-HCl concentrations in the blood.

[6] = glucuronide in plasma after 30 mg noribogaine
[7] = glucuronide in plasma after 60 mg noribogaine

## CC[C@H]1C[C@@H]2C[C@H]3c4[nH]c5ccc(OC6OC(C(=O)O)C(O)C(O)C6O)cc5c4CCN(C2)[C@@H]13 (stereo partly drawn) [Noribogaine glucuronide, noribogaine glucuronide]
[1]; 30 mg and 60 mg noribogaine dose groups, plasma
  time by which noribogaine glucuronide was detected in all subjects: ≤ 0.75 h
[1]; both dose groups (30 mg, 60 mg)
  proportion of noribogaine glucuronide Cmax and AUC relative to noribogaine: 3-4%
[1]; [6]
  AUC0-216: 25.7 (9.1) ng · hr/ml
  AUC0-∞: 25.8 (9.3) ng · hr/ml
  Cmax: 1.8 (0.6) ng/ml
  Tmax: 3.0 (0.6) hr
  t1/2: 20.6 (4.9) hr
[1]; [7]
  AUC0-216: 65.0 (21.5) ng · hr/ml
  AUC0-∞: 67.1 (21.9) ng · hr/ml
  Cmax: 4.1 (1.2) ng/ml
  Tmax: 3.8 (1.2) hr
  t1/2: 23.1 (3.0) hr
[1]; glucuronide, 30 mg and 60 mg dose groups, plasma
  time of peak concentrations after noribogaine dosing: 3 to 4 h
[1]; plasma noribogaine glucuronide, 30 mg and 60 mg dose groups
  mean half-life: 21 to 23 h

## CC[C@@H]1C[C@H]2CC3c4[nH]c5ccc(O)cc5c4CCN(C2)C31.Cl [noribogaine HCl]
[2]
  adverse effects in the trial: no clinically relevant adverse effects
[3]; 5 mg/kg/day for 14 days
  lacrimal gland changes (target tissue): slight to moderate atrophy and degeneration of the acinar cells
[3]; 5 mg/kg/day, 28 days off drug
  lacrimal gland change after recovery: clear evidence of regeneration of this lacrimal gland change
[3]; 0.5, 1.0 and 5.0 mg/kg/day oral for 14 days, dosing or recovery phase
  clinical observations, body weights, clinical pathology, ophthalmology, ECG, gross lesions: No evidence of adverse effect
[3]; 14 days oral, based on lacrimal gland changes
  NOAEL: 1 mg/kg/day
[4]; 100 mg/kg single oral
  clinical signs: did not show any treatment related signs
[4]; 300 mg/kg single oral, persisted until Day 2 in 3/5 rats
  clinical signs: Hypoactivity, vocalization, salivation, stimuli sensitivity, loss of limb function and lying on the cage floor
[4]; 800 mg/kg oral gavage (2 x 400 mg/kg 3 h apart), male rats
  mortality: Mortality occurred in all male rats
[4]; single oral dose, male rats
  NOAEL: 100 mg/kg
[5]; 100 mg/kg, females
  body weight change: −2.6%
[5]; 100 mg/kg, males
  body weight change: −5.5%
[5]; 100 mg/kg, males and females
  food consumption change: −4.7%
[5]; 25, 50 or 100 mg/kg daily oral gavage for 14 days
  effects on mortality, clinical signs, ophthalmoscopy, hematology, coagulation, clinical chemistry, urinalysis, gross necropsy, histopathology: no test article-related effects
[5]; 14 days
  brain sections stained for GFAP or Calbindin: No treatment-related differences in the brain
[5]; 14 days oral, highest dose tested
  NOAEL: 100 mg/kg
[5]; mid- and high dose groups, considered incidental
  liver weight: Minor increases in liver weight
